Results reported in patent US10188706B2, “Plasminogen activator mutants as anti-fibrinolytic agents” (HADASIT MEDICAL RESEARCH SERVICES & DEVELOPMENT LIMITED, priority 2012, dated 2019).
Entries after “also recorded” stand apart in the source; their conditions may differ.

Assays:
WT mice subjected to CHI = test: Closed head injury (CHI) model of TBI in WT mice; format: in vivo, mouse; details: WT mice, IV immediately after or 2 hrs after CHI, Hgb at 2 or 8 hrs, MRI at 24 hrs
Procedure: Eight to twelve weeks old C57 mice obtained from Harlan, Israel. Mice were administered standard laboratory chow and water ad libitum, and kept in controlled temperature and light conditions. Animal experiments were carried out according to the guidelines of the Hebrew University-Institutional Committee for Care and Use of Laboratory Animals, and with the committee's approval.
(§1) Closed Head Injury (CHI) Model
(§2) Head trauma was induced by using a modified weight-drop device, as previously described (Chen Y. et al. (1996) J. Neurotrauma, 13:557-568). Briefly, after induction of ether anesthesia, a midline longitudinal incision was made, the skin was retracted and the skull was exposed. The left anterior frontal area was identified and a Teflon tipped cone (2-mm diameter) was placed 1 mm lateral to the midline, in the midcoronal plane. The head was held in place manually and a 75-g weight was dropped on the cone from a height of 18 cm, resulting in focal injury to the left hemisphere. After trauma, the mice received supporting oxygenation with 95% 02 for no longer than 2 min and were then returned to their cages. In sham controls only anesthesia and skin incision were carried out.

[1] = test system: tPA-/- and uPA-/- mice subjected to CHI; test: Closed head injury (CHI) model in tPA-/- and uPA-/- mice; format: in vivo, mouse; details: 5 mg/kg each
From the text: as §1, §2

[2] = test system: mice treated with Coumadin and subjected to CHI; test: Closed head injury (CHI) in mice anticoagulated with warfarin (Coumadin); format: in vivo, mouse; details: for extent of ICH post CHI after anticoagulation: warfarin prior to CHI
From the text: as §1, §2

uPA = target: T1, uPA (Homo sapiens, UniProt P00749); test: Plasminogen activator activity, chromogenic assay without fibrin, activation by uPA; format: biochemical; details: plasminogen 500 nM, uPA 20 nM; mutants 100 nM or TA 200 nM alone; FIG. 2D
T1 construct: Single-chain urokinase (uPA) was purified, characterized as previously reported; made in house
Procedure: Plasminogen Activator Activity
Plasminogen activator activity was determined by adding tPA (50 nM) or uPA (20 nM), to a reaction mixture containing Glu-plasminogen and the plasmin chromogenic substrate Spectrazyme PL (100 μM) in phosphate-buffered saline (PBS) at 37° C., and the light absorbance at 405 nm was measured continuously over time. The initial velocities of plasmin generation at the different conditions were calculated from the change in the A405 nm over time. The initial velocity of the reaction at each plasminogen concentration was obtained by calculating the change in the rate of A405 over different time intervals and the results were expressed as the change in optical density (ΔOD) per minute, which represents the slope of the initial velocity of plasminogen activation (Higazi A et al., J Biol Chem. (1995), 270(29):17375-80).

[3] = test system: patients undergoing elective surgery; details: 53 studies, 3836 participants (Ker K. et al. 2012); cited from earlier work
trauma patients = details: early administration of a short course (Ker K. ibid.); cited from earlier work

WT-tPA: wild type tissue plasminogen activator; recombinant tPA from Genentech
intracerebral hemorrhage (MRI, extravasation of Hgb) post CHI (WT mice subjected to CHI): increased the extent of intracerebral hemorrhage
intracerebral hemorrhage (MRI, extravasation of Hgb) post CHI (WT mice subjected to CHI; listed as WT tPA): exacerbated
injury phenotype (ICH) of knock-out mice after exogenous plasminogen activator [1]: rescued

CC(=O)CC(c1ccccc1)c1c(O)c2ccccc2oc1=O (stereo not drawn) [warfarin]
extent of ICH post CHI after anticoagulation ([2]; WT mice): increased the extent of ICH
mean INR at the time of trauma ([2]; mice anticoagulated with warfarin prior to CHI): 2.5
extent of ICH post CHI after anticoagulation ([2]; tPA-/- or uPA-/- mice): had no such effect

NC[C@H]1CC[C@H](C(=O)O)CC1 [TA, tranexamic acid, reference compound]
plasminogen activation by uPA in the absence of fibrin (change in OD per minute) (uPA): dramatically stimulated; also recorded: mimics the effect of fibrin only in the case of uPA
need for blood transfusion [3]: reduced the need for blood transfusion by a third
death, vascular occlusive events and frequency of blood transfusions (trauma patients): reduced death, vascular occlusive events and the frequency of blood transfusions
